Calls of active or inactive are those of the source. No cut-off for these calls is given here.
Key:
[1] = target: Tyrosine-protein kinase receptor UFO (Homo sapiens) (UniProt P30530); assay: Inhibition of AXL phosphorylation at Tyr702 residue in human MDA-MB-231 cells measured after 6 hrs by Western blot analysis; type: cell-based; conditions: dose 0.8-500 nM, DDE = dose-dependent effect
[2] = target: Epithelial discoidin domain-containing receptor 1 (Homo sapiens, UniProt Q08345); assay: Binding affinity to DDR1 (unknown origin) assessed as dissociation constant by competition binding assay
MDA-MB-231 [3] = assay: Inhibition of TGF-beta induced epithelial mesenchymal transition process in human metastatic MDA-MB-231 cells assessed as restoration of N-cadherin expression incubated for 3 days by Western blot analysis; type: functional, cell-based; conditions: dose 0.11-3 µM, time 3.0 day, DDE = dose-dependent effect
4T1 [4] = assay: Antitumor activity against metastatic mouse 4T1 cells implanted in BALB/c mouse assessed as reduction in size of liver metastases administered orally once daily for 14 consecutive days by H & E staining based microscopic analysis; type: functional; conditions: dose 50-100 mg/kg, route po, time 14.0 day, DDE = dose-dependent effect
4T1 [5] = assay: Antitumor activity against metastatic mouse 4T1 cells implanted in BALB/c mouse assessed as tumor growth inhibition at 50 mg/kg, po qd administered for 14 consecutive days and measured every 2 days by electronic caliper method relative to control; type: functional; conditions: 4T1, 336 h, time 14 day, read-out: TGI
[6] = Observed AUCinfinity in Sprague-Dawley rat at 25 mg/kg, po measured for 96 hrs by LC-MS analysis; type: ADME, organism-based; design: dose 25 mg/kg, time 96 hrs, route po; conditions: in vivo
[7] = Inhibition of TGF-beta induced cell invasion in human MDA-MB-231 cells at 1 uM incubated for 24 hrs by crystal violet staining based transwell assay relative to control; type: functional
4T1 [8] = assay: Antitumor activity against metastatic mouse 4T1 cells implanted in BALB/c mouse assessed as reduction in number of liver metastases at 100 mg/kg, po qd administered for 14 consecutive days by H & E staining based microscopic analysis (reference value: 24.7 +/- 6.7); type: functional; conditions: time 14 day
[9] = target: Mast/stem cell growth factor receptor Kit (Homo sapiens, UniProt P10721); assay: Inhibition of KIT (unknown origin)
[10] = target: Hepatocyte growth factor receptor (Homo sapiens, UniProt P08581); assay: Binding affinity to MET (unknown origin) assessed as dissociation constant by competition binding assay
[11] = Tmax in Sprague-Dawley rat at 5 mg/kg, iv measured for 96 hrs by LC-MS analysis; type: ADME, organism-based; conditions: in vivo
[12] = target: Tyrosine-protein kinase receptor UFO (Mus musculus) (UniProt Q00993); assay: Inhibition of AXL phosphorylation at Tyr702 residue in mouse 4T1 cells measured after 6 hrs by Western blot analysis; type: cell-based; conditions: dose 0.8-500 nM, DDE = dose-dependent effect
[13] = target: Macrophage colony-stimulating factor 1 receptor (Homo sapiens, UniProt P07333); assay: Binding affinity to CSF1R (unknown origin) assessed as dissociation constant by competition binding assay
[14] = Toxicity in BALB/c mouse implanted with mouse 4T1 cells assessed as effect on implantation rate at 50 to 100 mg/kg, po qd administered for 14 consecutive days and measured every 2 days; type: organism-based; conditions: in vivo, 336 h, dose 50-100 mg/kg, time 14 day
MDA-MB-231 [15] = assay: Inhibition of TGF-beta induced cell migration in human MDA-MB-231 cells assessed as reduction in wound closure at 1 to 3 uM incubated for 24 hrs by bright field microscopy based wound healing assay; type: functional; conditions: dose 1-3 µM
[16] = target: Serine/threonine-protein kinase AKT (Homo sapiens) (UniProt P31751+Q9Y243+P31749); assay: Inhibition of AKT phosphorylation at S473 residue in human MDA-MB-231 cells measured after 6 hrs by Western blot analysis; type: cell-based; conditions: dose 0.8-500 nM, DDE = dose-dependent effect
[17] = target: Platelet-derived growth factor receptor beta (Homo sapiens, UniProt P09619); assay: Binding affinity to PDGFRB (unknown origin) assessed as dissociation constant by competition binding assay
[18] = Half life in Sprague-Dawley rat at 5 mg/kg, iv measured for 96 hrs by LC-MS analysis; type: ADME, organism-based; conditions: in vivo
[19] = Toxicity in BALB/c mouse implanted with mouse 4T1 cells assessed as body weight loss at 50 to 100 mg/kg, po qd administered for 14 consecutive days and measured every 2 days; type: organism-based; conditions: in vivo, 336 h, dose 50-100 mg/kg, time 14 day
[20] = Observed MRTinfinity in Sprague-Dawley rat at 5 mg/kg, iv measured for 96 hrs by LC-MS analysis; type: ADME, organism-based; conditions: in vivo
[21] = AUClast in Sprague-Dawley rat at 5 mg/kg, iv measured for 96 hrs by LC-MS analysis; type: ADME, organism-based; design: time 96 hrs, dose 5 mg/kg, route iv; conditions: in vivo
Ephrin type-B receptor 6 = Ephrin type-B receptor 6 (Homo sapiens, UniProt O15197); assay: Binding affinity to EPHB6 (unknown origin) assessed as dissociation constant by competition binding assay
[22] = Observed MRTinfinity in Sprague-Dawley rat at 25 mg/kg, po measured for 96 hrs by LC-MS analysis; type: ADME, organism-based; conditions: in vivo
[23] = target: Macrophage-stimulating protein receptor (Homo sapiens, UniProt Q04912); assay: Binding affinity to […] (unknown origin) assessed as dissociation constant by competition binding assay
BaF3 = assay: Antiproliferative activity against mouse BaF3 cells transfected with TEL-AXL assessed as inhibition of cell growth incubated for 72 hrs; type: functional, cell-based; conditions: BaF3, 72 h
Angiopoietin-1 receptor = Angiopoietin-1 receptor (Homo sapiens, UniProt Q02763); assay: Binding affinity to TIE2 (unknown origin) assessed as dissociation constant by competition binding assay
[24] = target: Serine/threonine-protein kinase 10 (Homo sapiens, UniProt O94804); assay: Binding affinity to LOK (unknown origin) assessed as dissociation constant by competition binding assay
4T1 [25] = assay: Inhibition of ERK phosphorylation in mouse 4T1 cells measured after 6 hrs by Western blot analysis; type: cell-based; conditions: dose 0.8-500 nM, DDE = dose-dependent effect
[26] = Cmax in Sprague-Dawley rat at 5 mg/kg, iv measured for 96 hrs by LC-MS analysis; type: ADME, organism-based; design: time 96 hrs, dose 5 mg/kg, route iv; conditions: in vivo

Chain of Platelet-derived growth factor receptor beta (P09619 whole entry): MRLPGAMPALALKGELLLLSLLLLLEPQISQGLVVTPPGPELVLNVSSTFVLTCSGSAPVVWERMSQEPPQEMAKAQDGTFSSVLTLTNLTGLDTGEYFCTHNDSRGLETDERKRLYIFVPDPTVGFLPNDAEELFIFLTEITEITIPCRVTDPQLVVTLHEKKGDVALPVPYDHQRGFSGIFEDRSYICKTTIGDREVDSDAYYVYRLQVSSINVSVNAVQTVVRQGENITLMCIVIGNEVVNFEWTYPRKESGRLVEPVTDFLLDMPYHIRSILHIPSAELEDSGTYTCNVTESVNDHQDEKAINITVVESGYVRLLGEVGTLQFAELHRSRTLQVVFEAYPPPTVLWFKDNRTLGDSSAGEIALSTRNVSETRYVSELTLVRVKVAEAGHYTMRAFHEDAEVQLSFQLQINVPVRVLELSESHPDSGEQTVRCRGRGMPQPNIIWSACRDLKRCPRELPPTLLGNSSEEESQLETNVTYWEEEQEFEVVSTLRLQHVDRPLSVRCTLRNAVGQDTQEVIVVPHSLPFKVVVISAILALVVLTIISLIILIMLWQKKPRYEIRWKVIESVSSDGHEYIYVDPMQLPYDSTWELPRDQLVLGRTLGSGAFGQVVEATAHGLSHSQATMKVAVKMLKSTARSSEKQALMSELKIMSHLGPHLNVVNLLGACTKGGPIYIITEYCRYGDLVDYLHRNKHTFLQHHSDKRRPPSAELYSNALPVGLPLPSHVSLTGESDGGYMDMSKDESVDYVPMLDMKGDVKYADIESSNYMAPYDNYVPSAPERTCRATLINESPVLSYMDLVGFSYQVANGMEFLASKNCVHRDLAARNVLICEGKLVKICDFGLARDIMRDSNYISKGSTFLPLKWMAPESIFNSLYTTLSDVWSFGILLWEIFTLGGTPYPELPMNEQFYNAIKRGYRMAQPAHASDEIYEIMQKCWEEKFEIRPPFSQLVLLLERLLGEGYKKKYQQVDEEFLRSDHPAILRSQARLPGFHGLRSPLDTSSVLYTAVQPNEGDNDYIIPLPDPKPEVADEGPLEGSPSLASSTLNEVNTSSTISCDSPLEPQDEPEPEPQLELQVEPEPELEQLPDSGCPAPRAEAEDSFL
Chain of Serine/threonine-protein kinase AKT (Homo sapiens) (P31749 whole entry, looked up): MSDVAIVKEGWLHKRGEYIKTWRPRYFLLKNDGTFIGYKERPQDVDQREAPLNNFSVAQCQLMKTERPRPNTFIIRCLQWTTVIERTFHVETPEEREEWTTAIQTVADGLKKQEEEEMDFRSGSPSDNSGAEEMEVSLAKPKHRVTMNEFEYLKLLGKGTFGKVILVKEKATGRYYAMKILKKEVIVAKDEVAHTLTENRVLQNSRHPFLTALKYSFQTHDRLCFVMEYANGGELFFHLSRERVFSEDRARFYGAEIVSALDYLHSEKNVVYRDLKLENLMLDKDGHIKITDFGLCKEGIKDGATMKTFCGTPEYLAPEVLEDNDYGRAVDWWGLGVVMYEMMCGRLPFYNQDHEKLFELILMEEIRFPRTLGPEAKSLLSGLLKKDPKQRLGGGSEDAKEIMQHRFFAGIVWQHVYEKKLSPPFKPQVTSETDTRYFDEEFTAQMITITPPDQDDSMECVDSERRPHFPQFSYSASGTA
Chain of Serine/threonine-protein kinase AKT (Homo sapiens) (P31751 whole entry, looked up): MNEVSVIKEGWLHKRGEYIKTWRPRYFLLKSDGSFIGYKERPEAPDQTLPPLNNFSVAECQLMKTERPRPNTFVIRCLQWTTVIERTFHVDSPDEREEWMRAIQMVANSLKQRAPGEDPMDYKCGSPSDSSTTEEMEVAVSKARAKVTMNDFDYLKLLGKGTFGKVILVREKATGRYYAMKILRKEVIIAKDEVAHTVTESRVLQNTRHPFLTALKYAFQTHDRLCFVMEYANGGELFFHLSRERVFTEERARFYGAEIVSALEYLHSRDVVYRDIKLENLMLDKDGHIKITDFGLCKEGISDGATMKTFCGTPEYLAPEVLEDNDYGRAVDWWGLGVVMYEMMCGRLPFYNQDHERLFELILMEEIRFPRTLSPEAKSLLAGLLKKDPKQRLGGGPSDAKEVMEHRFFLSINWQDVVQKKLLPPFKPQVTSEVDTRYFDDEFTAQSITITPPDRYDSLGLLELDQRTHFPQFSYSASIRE
Chain of Serine/threonine-protein kinase AKT (Homo sapiens) (Q9Y243 whole entry, looked up): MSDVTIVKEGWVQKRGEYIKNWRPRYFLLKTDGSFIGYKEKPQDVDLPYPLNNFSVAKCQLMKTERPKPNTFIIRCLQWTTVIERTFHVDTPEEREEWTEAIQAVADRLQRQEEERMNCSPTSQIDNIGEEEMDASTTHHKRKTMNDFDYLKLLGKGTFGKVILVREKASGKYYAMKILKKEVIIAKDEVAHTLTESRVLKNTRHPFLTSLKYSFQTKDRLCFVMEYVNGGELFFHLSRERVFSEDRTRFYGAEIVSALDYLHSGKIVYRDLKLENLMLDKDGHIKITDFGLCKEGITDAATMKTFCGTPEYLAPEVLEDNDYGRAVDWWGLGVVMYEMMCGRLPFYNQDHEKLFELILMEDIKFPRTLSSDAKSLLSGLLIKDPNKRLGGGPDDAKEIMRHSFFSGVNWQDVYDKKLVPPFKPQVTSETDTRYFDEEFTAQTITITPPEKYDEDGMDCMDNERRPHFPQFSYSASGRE
Chain of Hepatocyte growth factor receptor (P08581 whole entry): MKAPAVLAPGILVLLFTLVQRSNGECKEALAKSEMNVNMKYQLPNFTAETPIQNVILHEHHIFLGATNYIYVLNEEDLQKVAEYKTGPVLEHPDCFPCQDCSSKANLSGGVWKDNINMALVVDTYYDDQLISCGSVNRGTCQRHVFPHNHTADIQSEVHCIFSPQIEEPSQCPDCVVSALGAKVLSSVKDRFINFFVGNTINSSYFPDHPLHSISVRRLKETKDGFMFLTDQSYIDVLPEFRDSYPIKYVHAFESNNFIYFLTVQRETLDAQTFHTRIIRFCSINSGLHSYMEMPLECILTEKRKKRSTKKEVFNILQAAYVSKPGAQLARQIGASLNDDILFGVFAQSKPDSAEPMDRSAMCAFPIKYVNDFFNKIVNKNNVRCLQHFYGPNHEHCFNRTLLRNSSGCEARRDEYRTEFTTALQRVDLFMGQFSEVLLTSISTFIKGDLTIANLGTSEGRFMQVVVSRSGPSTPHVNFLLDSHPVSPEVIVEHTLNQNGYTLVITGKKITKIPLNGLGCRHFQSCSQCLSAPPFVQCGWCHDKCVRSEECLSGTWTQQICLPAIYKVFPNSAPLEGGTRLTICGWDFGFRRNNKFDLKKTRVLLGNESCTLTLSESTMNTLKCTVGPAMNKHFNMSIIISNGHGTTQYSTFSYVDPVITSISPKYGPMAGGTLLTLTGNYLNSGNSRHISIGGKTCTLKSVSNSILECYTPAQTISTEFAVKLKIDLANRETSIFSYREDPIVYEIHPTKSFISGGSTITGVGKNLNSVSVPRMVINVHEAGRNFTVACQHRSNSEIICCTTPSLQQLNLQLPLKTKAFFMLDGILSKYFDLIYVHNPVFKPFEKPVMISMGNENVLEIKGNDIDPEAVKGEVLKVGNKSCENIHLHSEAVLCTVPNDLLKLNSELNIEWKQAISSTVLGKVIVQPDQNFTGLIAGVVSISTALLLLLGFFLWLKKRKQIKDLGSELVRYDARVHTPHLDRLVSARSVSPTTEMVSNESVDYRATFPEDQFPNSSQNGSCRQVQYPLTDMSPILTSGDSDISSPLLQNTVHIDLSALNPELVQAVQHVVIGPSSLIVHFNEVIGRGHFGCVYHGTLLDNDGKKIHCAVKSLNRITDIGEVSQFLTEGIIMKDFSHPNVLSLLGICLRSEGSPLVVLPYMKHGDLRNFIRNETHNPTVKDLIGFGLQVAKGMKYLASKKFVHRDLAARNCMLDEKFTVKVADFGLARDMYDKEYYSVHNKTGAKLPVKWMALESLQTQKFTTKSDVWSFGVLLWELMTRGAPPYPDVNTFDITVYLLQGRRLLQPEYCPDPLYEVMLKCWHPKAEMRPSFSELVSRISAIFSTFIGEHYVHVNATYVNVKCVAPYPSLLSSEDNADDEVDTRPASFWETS
Chain of Macrophage colony-stimulating factor 1 receptor (P07333 whole entry): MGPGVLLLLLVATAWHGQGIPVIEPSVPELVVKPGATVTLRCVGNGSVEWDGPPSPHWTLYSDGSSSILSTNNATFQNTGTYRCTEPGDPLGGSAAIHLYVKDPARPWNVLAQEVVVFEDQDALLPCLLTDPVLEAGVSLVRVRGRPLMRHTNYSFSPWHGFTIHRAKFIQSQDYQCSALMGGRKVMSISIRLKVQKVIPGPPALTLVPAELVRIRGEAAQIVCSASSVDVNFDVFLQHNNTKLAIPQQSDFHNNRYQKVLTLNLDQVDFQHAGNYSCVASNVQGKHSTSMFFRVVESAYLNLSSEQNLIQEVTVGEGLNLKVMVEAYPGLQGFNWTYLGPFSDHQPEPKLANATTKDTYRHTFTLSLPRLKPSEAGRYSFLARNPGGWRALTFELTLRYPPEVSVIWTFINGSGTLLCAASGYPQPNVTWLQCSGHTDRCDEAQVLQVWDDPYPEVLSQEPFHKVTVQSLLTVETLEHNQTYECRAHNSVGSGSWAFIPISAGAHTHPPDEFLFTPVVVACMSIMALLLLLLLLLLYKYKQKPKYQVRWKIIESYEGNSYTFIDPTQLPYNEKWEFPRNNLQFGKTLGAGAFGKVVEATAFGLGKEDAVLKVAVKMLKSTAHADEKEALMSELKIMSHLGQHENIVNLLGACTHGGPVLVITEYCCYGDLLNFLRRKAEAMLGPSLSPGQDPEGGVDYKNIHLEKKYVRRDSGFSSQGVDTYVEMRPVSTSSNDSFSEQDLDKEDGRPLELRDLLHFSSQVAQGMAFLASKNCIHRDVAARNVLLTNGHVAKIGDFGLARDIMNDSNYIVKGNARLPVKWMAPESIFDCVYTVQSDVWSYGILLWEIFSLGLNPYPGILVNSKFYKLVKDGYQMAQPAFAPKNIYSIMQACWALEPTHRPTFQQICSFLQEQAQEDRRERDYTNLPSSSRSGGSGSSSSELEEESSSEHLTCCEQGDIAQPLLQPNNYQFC

In the case of COc1cc2c(Oc3ccc(Nc4nn(C)cc4C(=O)NC4CCCCC4)cc3F)ccnc2cc1OCCCN1CCOCC1, the inhibition [1] is reported as “Dde”, the Kd [2] is reported as over 1000 nM and the inhibition (MDA-MB-231 [3]) is reported as “Dde”. The Activity (4T1 [4]) was “Dde”, the inhibition in vivo at 50 mg/kg (4T1 [5]) was 78% and the AUC(0-inf) [6] was 8630 ng·h/mL. It also gave an inhibition at 1 µM [7] of 56.5%, an Activity (4T1 [8]) of 2.8 and an IC50 [9] of 151 nM. For the same molecule, the Kd [10] was over 1000 nM, the Tmax [11] was 4.8 min and the inhibition [12] was “Dde”. For the same molecule, the Kd [13] was 29 nM, the Activity [14] was “Non-Toxic” and the inhibition (MDA-MB-231 [15]) was “Active”. The inhibition [16] was “Dde”, the Kd [17] was 2.3 nM and the half-life [18] was 3.31 h. The Activity [19] was “Non-Toxic”, the MRT inf [20] was 1.82 h and the AUC(0-t) at 96 h [21] was 11700 ng·h/mL. It also gave a Kd (Ephrin type-B receptor 6) of over 1000 nM, an MRT inf [22] of 6.55 h and a Kd [23] of over 1000 nM. The IC50 (BaF3) was 4.7 nM, the Kd (Angiopoietin-1 receptor) was 950 nM and the Kd [24] was 880 nM. For the same molecule, the inhibition (4T1 [25]) was “Dde” and the Cmax [26] was 12300 ng/mL.

— ChEMBL document CHEMBL5096241, “Discovery of 3-Aminopyrazole Derivatives as New Potent and Orally Bioavailable AXL Inhibitors” (J Med Chem, 2022)
